Measurements: PubChem BioAssay (NCI)
“And” between values parts separate entries of the source, which are not always exact repeats. Equal values may be shown once.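 Briefly, cells in 96-well plates were exposed to five compound concentrations for 48 h, and endpoints were estimated by linear interpolation. Abbreviation: GI50, concentration required for 50% inhibition of growth. TGI is the concentration that stops growth completely.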

Key:
Experiment in all cases: NCI tumour cell line growth inhibition, 48 h
[1] = system: K-562 leukemia
[2] = system: NCI-H226 lung
[3] = system: NCI-H522 lung
[4] = system: HOP-92 NSCLC
[5] = system: HT29 colon
[6] = system: DU-145 prostate
[7] = system: SNB-75 CNS
[8] = system: A498 renal
[9] = system: 786-0 renal
[10] = system: RPMI-8226 leukemia

SMILES	TGI [1]	TGI [2]	TGI [3]	TGI [4]	TGI [5]	TGI [6]	TGI [7]	TGI [8]	TGI [9]	TGI [10]	GI50 [1]	GI50 [2]	GI50 [3]	GI50 [4]	GI50 [5]	GI50 [6]	GI50 [7]	GI50 [8]	GI50 [9]	GI50 [10]
CS[C@]12C(=O)C[C@@]3(C)[C@@H](CC[C@]3(O)C(=O)CO)[C@@H]1CCC1=CC(=O)CC[C@@]12C	> 100 µM	> 100 µM	> 100 µM	> 100 µM	> 100 µM	> 100 µM	> 100 µM	> 100 µM	> 100 µM	> 100 µM	–	–	–	–	–	–	–	–	–	–
Cc1ccc(S(=O)(=O)Nc2cccc3[nH]c(C(F)(F)F)nc23)cc1	> 100 µM	29.1 µM	0.696 µM	9.32 µM	7.31 µM	> 39.9 µM	2.45 µM	1.82 µM	67.3 µM	13.7 µM	0.269 µM	3.73 µM	0.15 µM	0.957 µM	0.351 µM	1.2 µM	0.314 µM	0.262 µM	1.94 µM	0.772 µM
Cc1c2c(nn1C)CSCc1cc(n(C)n1)CSc1cc(c3ccccc3c1)OCCCc1c(C(=O)O)n(C)c3c-2c(Cl)ccc13	16.8 µM	23.2 µM	8.01 µM	10.2 µM	12.6 µM	15.9 µM	18 µM	19 µM	17.8 µM	1.33 µM	3.78 µM	4.4 µM	1.9 µM	2.46 µM	3.32 µM	4.52 µM	4.35 µM	4.01 µM	4.4 µM	0.0401 µM
O=C(NC[C@H](O)CO)c1ccncc1Nc1ccc(I)cc1F	> 100 µM	> 100 µM	> 100 µM	1.2 µM and 3.61 µM	> 38.7 µM	> 100 µM	> 100 µM	0.417 µM and 0.517 µM	> 100 µM	> 100 µM	1.32 µM and 4.26 µM	> 6.36 µM and 1.4 µM	4.95 µM and 33.2 µM	0.0509 µM and 0.0379 µM	0.00409 µM and < 0.011 µM	> 10 µM and 17.8 µM	> 10 µM and 33.2 µM	0.03 µM and 0.0394 µM	> 10 µM and 6.21 µM	> 10 µM and 28.4 µM
CCOc1ccccc1N=Nc1c(C)[nH]n(-c2nc(-c3ccccc3)cs2)c1=O	> 100 µM	> 100 µM	87.6 µM	> 96.8 µM	> 100 µM	> 100 µM	48.3 µM	> 100 µM	> 100 µM	> 100 µM	> 100 µM	32.5 µM	22.1 µM	21.9 µM	97.9 µM	53.2 µM	14.3 µM	23.5 µM	35.4 µM	> 100 µM
COc1c2c(nc3ccccc13)-c1cc3c(c(=O)n1C2)COC(=O)C3(O)CC(=O)N1CCOCC1 (stereo not given)	> 100 µM	22.9 µM	31.4 µM	63.4 µM	68 µM	17.7 µM	11.6 µM	46.4 µM	12.8 µM	82 µM	–	–	–	–	–	–	–	–	–	–
Nc1[nH]nc2nc(-c3cccs3)cc(C(F)(F)F)c12	> 25 µM	> 25 µM	> 25 µM	> 25 µM	> 25 µM	> 25 µM	> 25 µM	> 25 µM	> 25 µM	> 25 µM	> 25 µM	> 23.2 µM	> 13.9 µM	> 14.1 µM	> 25 µM	> 25 µM	> 25 µM	> 23.7 µM	> 25 µM	> 25 µM
O=C(NN1C(=O)CSC12CCCC2)c1[nH]c2ccc(Br)cc2c1-c1ccccc1	43.2 µM	> 100 µM	> 100 µM	> 100 µM	> 100 µM	> 100 µM	> 100 µM	> 100 µM	> 100 µM	86.5 µM	18.7 µM	> 100 µM	30.4 µM	33.8 µM	30.7 µM	> 100 µM	46.1 µM	> 100 µM	22.3 µM	30.2 µM
C=C1C(=O)OC2/C=C(/C)C(OC(C)=O)CC(O)/C(C)=C\C(OC(=O)/C(C)=C\C)C12 (stereo not given)	> 100 µM	> 100 µM	22.7 µM	> 100 µM	> 100 µM	> 100 µM	> 100 µM	> 100 µM	35.4 µM	> 100 µM	–	–	–	–	–	–	–	–	–	–
C1CN(SSN2CCOCC2)CCO1	> 100 µM	> 100 µM	64.8 µM	89.2 µM	43.1 µM	> 100 µM	> 100 µM	> 100 µM	37.1 µM	> 100 µM	4.58 µM	> 100 µM	22.2 µM	15.7 µM	19.9 µM	> 100 µM	44.1 µM	> 100 µM	21 µM	27.4 µM
